Reference: patent US10385041B2, “Terpene derivative-based PAR1 inhibitor, preparation method thereof, and use in treatment of thrombotic diseases” (SHANDONG UNIVERSITY, priority 2015, dated 2019)

Target: T1, PAR1 (Homo sapiens, UniProt P25116)
T1 sequence (P25116 22-425): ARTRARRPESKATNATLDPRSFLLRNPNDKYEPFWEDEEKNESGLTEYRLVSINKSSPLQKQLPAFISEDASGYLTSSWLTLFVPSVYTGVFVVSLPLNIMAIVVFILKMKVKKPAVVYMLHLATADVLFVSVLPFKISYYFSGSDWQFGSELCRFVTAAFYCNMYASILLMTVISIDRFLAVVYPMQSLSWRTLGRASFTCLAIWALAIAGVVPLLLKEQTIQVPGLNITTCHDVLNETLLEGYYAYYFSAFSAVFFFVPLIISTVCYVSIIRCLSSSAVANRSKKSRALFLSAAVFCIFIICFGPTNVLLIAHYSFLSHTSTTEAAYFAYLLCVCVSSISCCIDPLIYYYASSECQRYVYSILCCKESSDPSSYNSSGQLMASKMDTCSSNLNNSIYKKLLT
Experiment: Calcium ion influx experiment (FLIPR), PAR1 inhibition activity, HEK293-Ga15-PAR1 cell strain, agonist haTRAP
Type: cell-based
Conditions: HEK293-Ga15-PAR1 cells; for IC50: calcium influx, agonist haTRAP 3 μM, 4-PL fit; for Slope: slope of 4-PL dosage-effect curve, haTRAP 3 μM
Procedure: Embodiment 6: Determination of Biological Activity (PAR1 Inhibition Activity) of the Compound
An HEK293-Ga15-PAR1 cell strain (HD Biosciences stable cell strain) was quickly taken out of a liquid nitrogen tank, and shaken continuously in a 37° C. water bath until it was completely melted. A cell suspension was quickly added into a pre-heated culture medium (90% DMEM+10% FBS+1× Pen/Strep), placed in a centrifuge and centrifuged at 1000 rpm for 10 minutes. A centrifugal tube was taken out, the supernatant was discarded, and the fresh pre-heated culture medium was added into the centrifugal tube, cells were resuspended, and the cell suspension was added into a culture dish and cultured at 37° C. with 5% of CO2.
When the cells reached 80-90% of the culture dish, the cells were gently washed with 0.05% of trypsin-EDTA, part of digestive juice was removed, then the cells were incubated for 2-3 min, the digestion was terminated with the new culture medium, the cells were gently blew with a gun head, and the cells were resuspended. In general, the passage was performed according to 1:4 to 1:8 every 2 to 3 days.
On the day before the experiment, 1× Matrigel (Brand: BD, Cat #: 356230) was added into a clean 384-well cell plate, incubated at 37° C. for 30 minutes, and then inverted and centrifuged at 500 rpm for 30 seconds to remove the coating solution.
The cell precipitate was digested and collected, resuspended in the culture medium to 3×10^5 cells/mL, added into the coated cell plate according to 50 μL per well and then incubated at 37° C. with 5% of CO2 overnight.
On the day of the experiment, the fresh experimental buffer solution and 0.5× Calcium 4 (Brand: Molecular Devices, Cat #: R8141) loading buffer solution were prepared.
The 30 mM DMSO stock solution was first diluted with DMSO to 10 mM, and then diluted 4 times from 10 mM for a total of 10 concentrations. Ten DMSO concentration gradients of the compound were added into the experimental buffer solution at a ratio of 1:20 to prepare a working solution of the compound (5 times the final reaction concentration). After that, the working solution of the compound was transferred into a 384-well compound plate according to the layout in the following drawing for later use.
Positive control: 40 mM DMSO stock solution of the reference compound SCH79797 was diluted to 2 mM;
Negative control: 5% of DMSO prepared from the experimental buffer solution
10 mM DMSO stock of the agonist haTRAP was diluted with the experimental buffer solution to 18 μM (6 times the final reaction concentration 3 μM), and then transferred into a 384-well compound plate, at least at 25 μl/well for later use.
The cell plate incubated overnight was taken out, the cell culture medium was removed by centrifugation at 300 rpm for 30 seconds, 20 μL of freshly prepared 0.5× Calcium 4 loading buffer solution was added into every well and then incubation was performed at 37° C. with 5% of CO2 for 1 hour.
The compound working solution was transferred from the compound plate to the cell plate at 5 μL/well according to the layout, then placed at 37° C. again and incubated with 5% of CO2 for 15 minutes.
The agonist was transferred from the 384-well compound plate (FLIPR) to the cell plate at 5 μL/well according to the program set by FLIPR, and the fluorescent signals in each well of the cell plate were simultaneously read.
The inhibition rate (%) of the compound in each well on the cell plate was calculated according to the fluorescence signal values of the positive control and the negative control on each cell plate. […] The inhibition rates and the corresponding concentrations of the compounds obtained by calculation were introduced into the relevant software for graphing, and the IC50 values of the compounds were calculated according to the 4-PL dosage-effect formula. The IC50 result of the reference compound is also one of standards for testing the quality of every experiment.

| IC50 [µM] | SMILES | Slope |
| --- | --- | --- |
| 8.91 | C[C@]1(CO)[C@H]2CCC(CO)[C@@H](CCc3ccc(-c4cccc(F)c4)cn3)[C@]2(C)CC[C@H]1O (stereo partly drawn) [Compound I-3] |  |
| 8.76 | C[C@]1(CO)[C@H]2CCC(CO)[C@@H](CCc3ccc(-c4cccc(C(F)(F)F)c4)cn3)[C@]2(C)CC[C@H]1O (stereo partly drawn) [Compound I-4] |  |
| 3.52 | C[C@@]1(C=O)[C@H](O)CC[C@@]2(C)[C@H](/C=C/c3ccc(-c4cccc(F)c4)cn3)C3(CC[C@H]12)CO3 (stereo partly drawn) [Compound I-7] | 1.02 |
| 7.95 | C[C@]1(CO)[C@H]2CCC3(CO3)[C@@H](/C=C/c3ccc(-c4cccc(C(F)(F)F)c4)cn3)[C@]2(C)CC[C@H]1O (stereo partly drawn) [Compound I-2] |  |
| 7.76 | C[C@]1(CO)[C@H]2CCC3(CO3)[C@@H](/C=C/c3ccc(-c4cccc(F)c4)cn3)[C@]2(C)CC[C@H]1O (stereo partly drawn) [Compound I-1] |  |
| 8.71 | CC(C)c1ccc(Cn2ccc3c4c(N)nc(NC5CC5)nc4ccc32)cc1 [SCH79797, reference compound] | 0.95 |

| SMILES | IC50 [µM] | Slope |
| --- | --- | --- |
| C[C@@]12CC[C@@H](O)[C@@](C)(C(=O)O)[C@H]1CCC1(CO1)[C@H]2/C=C/c1ccc(-c2cccc(F)c2)cn1 (stereo partly drawn) [Compound I-8] | 31.6 | 1.97 |
| COC(=O)[C@]1(C)[C@H](O)CC[C@@]2(C)[C@H](/C=C/c3ccc(-c4cccc(F)c4)cn3)C3(CC[C@@H]21)CO3 (stereo partly drawn) [Compound I-9] | 0.66 | 0.97 |
| COC[C@@]1(C)[C@H]2CCC3(CO3)[C@@H](/C=C/c3ccc(-c4cccc(F)c4)cn3)[C@]2(C)CC[C@H]1O (stereo partly drawn) [Compound I-5] | 7.07 | 2.59 |
| CO[C@@H]1CC[C@]2(C)[C@H](CCC3(CO3)[C@H]2/C=C/c2ccc(-c3cccc(F)c3)cn2)[C@]1(C)CO (stereo partly drawn) [Compound I-6] | 11 | 1.53 |
| C[C@@]1(C(=O)O)C(=O)CC[C@@]2(C)[C@H](/C=C/c3ccc(-c4cccc(F)c4)cn3)C3(CC[C@H]12)CO3 (stereo partly drawn) [Compound I-10] | 19.7 | 1.23 |
